Measured values from patent US10745370B2, “Farnesyl transferase inhibitors and uses thereof” (MACKAY MEMORIAL HOSPITAL, priority 2016, dated 2020).
Several values for one entry are separate records, joined by “and”; a condition that tells them apart may be missing. Equal entries are not always repeated. Entries after “also recorded” stand apart in the source; their conditions may differ.

Assays:
rat PFTase = target: T1, rat PFTase (Rattus norvegicus, UniProt Q02293+Q04631); assay: Inhibition of farnesyl transferase (fluorescence assay); type: biochemical; conditions: mean ± SD of three independent experiments
T1 construct: purchased Jena Biosciences
Description: The assay was carried out in 384-well microplates with a final volume of 20 μl by the method modified from the previous report (Long et al., 2009). Briefly, 10 nM of rat PFTase (Jena Biosciences, Jena, Germany) was incubated with the tested compound or DMSO (1%) for 15 min, and then the mixture was added in a solution (50 mM Tris-HCl, pH 7.5, 5 mM MgCl2, 5 mM DTT, 0.1 mM ZnCl2, 0.2% octyl-β-D-glucopyranoside (Sigma, St. Louis, Mo.), 10 μM PFTase substrate dansyl-Gly-Cys-Val-Leu-Ser-OH, and 10 μM farnesyl pyrophosphate (Sigma, St. Louis, Mo.)) to initiate the reaction. The reaction was incubated at 37° C. for 30 min, and the fluorescence was detected by a M5 plate reader (Molecular Devices, CA, USA) at 340 nm excitation and 505 nm emission.

M1 macrophages [1] = assay: Differentiation analysis, cell viability of M1 macrophages; type: cell-based, human
Description: (§1) M1 differentiation of freshly isolated CD14^+ cells was induced by the addition of lipopolysaccharide (LPS), while M2 differentiation of freshly isolated CD14^+ cells was induced by the addition of IL-4. Then, the present compounds (e.g., Mib-5, 6, 7, 8, 9, or 10) were added at the indicated dosages. 6 days later, the population of the differentiated macrophages were then determined by cell viability analysis. The cell viability was measured by cell counting kit-8 (CCK-8, Sigma). The half maximal inhibitory concentrations (IC50) of the test compounds on macrophages or dendritic cells were calculated.

M1 macrophages [2] = assay: Cell marker expression on M1 macrophages, flow cytometry; type: cell-based, human
Description: (§2) M1 differentiation of freshly isolated CD14^+ cells was induced by the addition of lipopolysaccharide (LPS), while M2 differentiation of freshly isolated CD14^+ cells was induced by the addition of IL-4. Then, the present compounds (e.g., Mib-5, 6, 7, 8, 9, or 10) were added at the indicated dosages. 6 days later, the population of the differentiated macrophages were then determined by cell viability analysis.
(§3) The expression of various types of cell markers, such as CD14, CD206, and CD80 expressed on the surface of macrophages, and CD1a, CD14, CD83, and HLA-DR expressed on the dendritic cells, were respectively detected by fluorescein isothiocyanate (FITC) and phycoerythrin (PE)-conjugated monoclonal antibodies in FACS caliber flowcytometer. Monoclonal antibodies used in this examples included anti-CD14 (IgG-FITC), anti-CD206 (IgG-FITC), anti-CD80-PE, anti-CD1a-PE, anti-CD83-PE and anti-human leukocyte antigen (HLA)-DR-PE. Results were analyzed by CellQuest software.

dendritic cells [3] = assay: Trypan blue exclusion analysis of dendritic cells; type: cell-based, human; conditions: 10 μM, seven days, FIG. 7
Description: (§4) Mononuclear cells (MNCs) were separated from the peripheral blood of healthy donors obtained with written consent by use of Ficoll-Hypaque density centrifugation, followed by positive selection with magnetic anti-CD14 microbeads.
(§5) The isolated CD14^+ cells were cultivated in Minimum Essential Medium (MEM medium) supplemented with 10% fetal bovine serum (FBS), 100 ng/ml granulocyte-macrophage colony-stimulating factor (GM-CSF, Gentaur), and 50 ng/ml interleukin-4 (IL-4, R&D), and kept in an environment of 37° C. with 5% CO2/95% air.
(§6) To evaluate the effects of the present compound on dendritic cells, the CD14^+ cells were respectively treated with 10 μM of test compound (i.e., Mib-5, Mib-6, Mib-7, Mib-8, Mib-9, and Mib-10) on day 1. Then, on day 3, the cultured medium in each well was replenished by adding half the volume of the cultured medium containing the same treatment as indicated above. Then, on day 6, a cytokine cocktail containing IL-1, IL-6, and tumor necrosis factor-α (TNF-α) was added to induce maturation. On day 7, the differentiated dendritic cells were collected and subjected to further assays, including viability assay, morphology observation, and cell marker staining.
(§7) The dye exclusion test is used to determine the number of viable cells present in a cell suspension. […] In this test, the cells were first treated with a test compound (i.e., Mib-5, 6, 7, 8, 9 or 10) for a certain period of time (e.g., 72 hours), then the cells were harvested and re-suspended in suitable buffer solution. The cell suspension was then mixed with trypan blue dye and then visually examined to determine whether cells had taken up or excluded the dye. A viable cell will have a clear cytoplasm, whereas a nonviable cell will have a blue cytoplasm. The concentration required to reduce viability by 50% (IC50) after 72 hours was extrapolated from the dose-response curves by different concentrations of the test compound using a second-order polynomial regression model and analyzing with SigmaPlot Software (Systat Software Inc., San Jose, Calif.).
(§8) In this example, the effects of the present compounds on dendritic cells were investigated. Briefly, the dendritic cells were respectively treated with 10 μM of Mib-5, Mib-6, Mib-7, Mib-8, or Mib-10. Seven days later, the cells were harvested and subjected to analysis of morphology observation, cell viability, and/or cell marker expression.

M2 macrophages [4] = assay: Differentiation analysis, cell viability of M2 macrophages; type: cell-based, human
Description: as §1

dendritic cells [5] = assay: Morphology of dendritic cells by Liu's staining; type: cell-based, human; conditions: 10 μM, seven days, FIG. 8
Description: as §4, §5, §6
(§9) Cells were transferred to a glass coverslide and covered with solution A (0.5 g of methylene blue and 1.7 g of Eosin yellow dissolved in 1,000 ml of ethanol). After 45 seconds, solution B (1.3 g of azure, 1.4 g of methylene blue, 23.38 g of Na2HPO4, 6.5 g of KH2PO4, dissolved in 1,000 ml of distilled water) was added in the proportion of 2 parts of B to 1 part of A. Mixed the solutions well by blowing the surface. The slide was left standing for 90 seconds and then washed off the staining solution rapidly by running water. The morphology of stained cells was then examined under microscope.
as §8

macrophages [6] = assay: Morphology of macrophages (photographs, Liu's staining); type: cell-based, human
Description: as §4, §5, §6
(§10) As to the effects of the present compound on macrophages, the CD14^+ cells were cultivated and treated as indicated above except the addition of cytokine cocktail on day 6. The macrophages were collected on day 6 and subjected to further assays, including viability assay, trypan blue exclusion test, morphology observation, cell marker staining, and phagocytotic activity analysis.
as §9

macrophages [7] = assay: Trypan blue exclusion test on macrophages; type: cell-based; conditions: trypan blue analysis, FIG. 2
Description: as §4, §5, §6, §10, §7

M2 macrophages [8] = assay: Cell marker expression on M2 macrophages, flow cytometry; type: cell-based, human
Description: as §2, §3

macrophages [9] = assay: Cell marker expression on macrophages (total), flow cytometry; type: cell-based, human
Description: as §4, §5, §6, §10, §3

dendritic cells [10] = assay: Cell marker expression on dendritic cells, flow cytometry; type: cell-based, human; conditions: 10 μM
Description: as §4, §5, §6, §3, §8

macrophages [11] = assay: Phagocytosis assay with fluorescent latex beads; type: cell-based, human; conditions: M1 and/or M2 populations, FIG. 6
Description: as §10
The phagocytic activity of macrophages was measured by using flow cytometric analysis. The green fluorescent latex beads (carboxylate-modified beads with diameter 2 μm) were suspended in PBS solution and added into macrophage culture for 2 hours with vortexa at 37° C. The macrophages were subjected to flow cytometry for measurement of fluorescent intensity

## COC1=CC(=O)[C@@]2(c3cc(=O)c4ccc(O)cc4o3)[C@H](CC=C(C)[C@@H]2C[C@]2(C)[C@@H](C(=O)O)CC=C3[C@H]2CCCC3(C)C)C1=O [Mib-10]
Rat PFTase
  IC50: ~28 µM and 27.9 µM
M1 macrophages [1]; LPS-induced M1 differentiation, 6 days, control 100%
  Cell viability of M1 macrophages: 82.5%
M1 macrophages [1]; Table 4
  change in M1 population of macrophages compared with control: decrease
M1 macrophages [2]; Table 5
  CD14: M1 population after treatment: remained relatively unchanged
M1 macrophages [2]; control 14.27%
  CD206 expression on M1 macrophages: 15.17%
M1 macrophages [2]; control 71.34%
  CD80 expression on M1 macrophages: 84.46%
M1 macrophages [2]; control 99.83%
  CD14 expression on M1 macrophages: 99.10%
Dendritic cells [3]
  levels of viable dendritic cells: remained relatively unchanged
M2 macrophages [4]; IL-4-induced M2 differentiation, 6 days, control 100%
  Cell viability of M2 macrophages: 145.5%
M2 macrophages [4]; compared with control, Table 4
  increase of M2 population: about 40%
Dendritic cells [5]
  dendritic cell morphology compared with control group: did not cause any significant changes
Macrophages [6]; 10 μM, FIG. 1 panel A
  cells exhibiting adhesive morphology: about 20%
Macrophages [6]; FIG. 1 panel C
  morphology of cells by Liu's staining compared with control cells: not significantly affected
Macrophages [7]
  cell viability / cytotoxicity toward macrophages: did not adversely affect cell viability; also recorded: no significant cytotoxicity
M2 macrophages [8]; Table 5
  CD14: M2 population after treatment: significant decrease
M2 macrophages [8]; Table 6
  CD80: change in M2 population: increase
M2 macrophages [8]; control 47.64%
  CD80 expression on M2 macrophages: 59.89%
M2 macrophages [8]; control 55.66%
  CD14 expression on M2 macrophages: 57.93%
M2 macrophages [8]; control 74.49%
  CD206 expression on M2 macrophages: 68.80%
Macrophages [9]
  increase of total level of CD80 as compared with the control: about 2 folds
Macrophages [9]; FIG. 3
  total expressed level of CD14: not affected
Macrophages [9]; FIG. 5
  level of CD206: increase
Macrophages [9]; compared with the control
  total level of CD80: increased
Dendritic cells [10]; FIG. 9
  expression of CD1a, differentiation marker of dendritic cells: not
Dendritic cells [10]; FIG. 10
  expression of CD83, maturation marker of dendritic cells: not affected
Macrophages [11]
  phagocytic activity compared with control: reduced
